From US10251395B2, “Substituted furano-/thienocycloalkylamino-2-pyrimidine derivatives and use thereof for controlling undesired plant growth” (Bayer CropScience Aktiengesellschaft, priority 2015, dated 2019)

Columns and labels:
[1] = tested on: Echinochloa crus-galli; assay: Pre-emergence herbicidal effect; type: in vivo; settings: scored visually after 3 weeks
In short: (§1)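 Pre-emergence soil-surface application of compound as WP or EC in water (600 to 800 L/ha, 0.2% wetting agent) to freshly sown, soil-covered seeds in sandy loam. After 3 weeks under greenhouse conditions, percent activity rated by eye versus untreated plants, from 0% (no effect) to 100% (death).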

[2] = tested on: Veronica persica; assay: Pre-emergence herbicidal effect; type: in vivo; settings: scored visually after 3 weeks
In short: as §1

[3] = tested on: Amaranthus retroflexus; assay: Pre-emergence herbicidal effect; type: in vivo; settings: scored visually after 3 weeks
In short: as §1

[4] = tested on: Polygonum convolvulus; assay: Pre-emergence herbicidal effect; type: in vivo; settings: scored visually after 3 weeks
In short: as §1

[5] = tested on: Alopecurus myosuroides; assay: Pre-emergence herbicidal effect; type: in vivo; settings: scored visually after 3 weeks
In short: as §1

[6] = tested on: Avena fatua; assay: Pre-emergence herbicidal effect; type: in vivo; settings: Dosage 320 g/ha, scored visually after 3 weeks
In short: as §1

[7] = tested on: Stellaria media; assay: Pre-emergence herbicidal effect; type: in vivo; settings: scored visually after 3 weeks
In short: as §1

[8] = tested on: Setaria viridis; assay: Pre-emergence herbicidal effect; type: in vivo; settings: scored visually after 3 weeks
In short: as §1

[9] = tested on: Matricaria inodora; assay: Pre-emergence herbicidal effect; type: in vivo; settings: scored visually after 3 weeks
In short: as §1

[10] = tested on: Viola tricolor; assay: Pre-emergence herbicidal effect; type: in vivo; settings: scored visually after 3 weeks
In short: as §1

[11] = tested on: Lolium multiflorum; assay: Pre-emergence herbicidal effect; type: in vivo; settings: Dosage 320 g/ha, scored visually after 3 weeks
In short: as §1

[12] = tested on: Abutilon theophrasti; assay: Pre-emergence herbicidal effect; type: in vivo; settings: scored visually after 3 weeks
In short: as §1

[13] = logP (HCOOH); type: physicochemical; settings: HCOOH
Excerpt: Table 2 (physicochemical characterization of selected synthesis examples)

[14] = tested on: Echinochloa crus-galli; assay: Post-emergence herbicidal effect; type: in vivo; settings: assessed visually after about 3 weeks vs untreated controls
In short: (§2)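 Herbicidal effect was rated visually roughly 3 weeks after foliar treatment, as % versus untreated plants, with 0% meaning the same as controls and 100% meaning dead. Plants were treated at the one-leaf stage in the greenhouse with aqueous WP or EC sprays at 600–800 L/ha containing 0.2% wetter.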

[15] = tested on: Veronica persica; assay: Post-emergence herbicidal effect; type: in vivo; settings: assessed visually after about 3 weeks vs untreated controls
In short: as §2

[16] = tested on: Amaranthus retroflexus; assay: Post-emergence herbicidal effect; type: in vivo; settings: assessed visually after about 3 weeks vs untreated controls
In short: as §2

[17] = tested on: Polygonum convolvulus; assay: Post-emergence herbicidal effect; type: in vivo; settings: assessed visually after about 3 weeks vs untreated controls
In short: as §2

[18] = tested on: Alopecurus myosuroides; assay: Post-emergence herbicidal effect; type: in vivo; settings: assessed visually after about 3 weeks vs untreated controls
In short: as §2

[19] = tested on: Ipomoea purpurea; assay: Post-emergence herbicidal effect; type: in vivo; settings: assessed visually after about 3 weeks vs untreated controls
In short: as §2

[20] = tested on: Stellaria media; assay: Post-emergence herbicidal effect; type: in vivo; settings: assessed visually after about 3 weeks vs untreated controls
In short: as §2

[21] = tested on: Setaria viridis; assay: Post-emergence herbicidal effect; type: in vivo; settings: assessed visually after about 3 weeks vs untreated controls
In short: as §2

[22] = tested on: Viola tricolor; assay: Post-emergence herbicidal effect; type: in vivo; settings: assessed visually after about 3 weeks vs untreated controls
In short: as §2

[23] = tested on: Lolium multiflorum; assay: Post-emergence herbicidal effect; type: in vivo; settings: assessed visually after about 3 weeks vs untreated controls
In short: as §2

[24] = tested on: Abutilon theophrasti; assay: Post-emergence herbicidal effect; type: in vivo; settings: assessed visually after about 3 weeks vs untreated controls
In short: as §2

[25] = tested on: Matricaria inodora; assay: Post-emergence herbicidal effect; type: in vivo; settings: 320 g/ha, assessed visually after about 3 weeks vs untreated controls
In short: as §2

Structure (SMILES): Cc1cc2c(s1)C(Nc1ncc(C(F)(F)F)c(N)n1)CCC2 (racemic) [compound 55]
- ECHCG pre-emergence efficacy (herbicidal activity) ([1]; Dosage 80 g/ha): 100%
- ECHCG pre-emergence efficacy (herbicidal activity) ([1]; Dosage 320 g/ha): 100%
- VERPE pre-emergence efficacy (herbicidal activity) ([2]; Dosage 80 g/ha): 100%
- VERPE pre-emergence efficacy (herbicidal activity) ([2]; Dosage 320 g/ha): 100%
- AMARE pre-emergence efficacy (herbicidal activity) ([3]; Dosage 80 g/ha): 100%
- AMARE pre-emergence efficacy (herbicidal activity) ([3]; Dosage 320 g/ha): 100%
- POLCO pre-emergence efficacy (herbicidal activity) ([4]; Dosage 320 g/ha): 90%
- ALOMY pre-emergence efficacy (herbicidal activity) ([5]; Dosage 80 g/ha): 90%
- ALOMY pre-emergence efficacy (herbicidal activity) ([5]; Dosage 320 g/ha): 100%
- AVEFA pre-emergence efficacy (herbicidal activity) [6]: 100%
- STEME pre-emergence efficacy (herbicidal activity) ([7]; Dosage 80 g/ha): 100%
- STEME pre-emergence efficacy (herbicidal activity) ([7]; Dosage 320 g/ha): 100%
- SETVI pre-emergence efficacy (herbicidal activity) ([8]; Dosage 80 g/ha): 100%
- SETVI pre-emergence efficacy (herbicidal activity) ([8]; Dosage 320 g/ha): 100%
- MATIN pre-emergence efficacy (herbicidal activity) ([9]; Dosage 80 g/ha): 100%
- MATIN pre-emergence efficacy (herbicidal activity) ([9]; Dosage 320 g/ha): 100%
- VIOTR pre-emergence efficacy (herbicidal activity) ([10]; Dosage 80 g/ha): 100%
- VIOTR pre-emergence efficacy (herbicidal activity) ([10]; Dosage 320 g/ha): 100%
- LOLMU pre-emergence efficacy (herbicidal activity) [11]: 100%
- ABUTH pre-emergence efficacy (herbicidal activity) ([12]; Dosage 80 g/ha): 100%
- ABUTH pre-emergence efficacy (herbicidal activity) ([12]; Dosage 320 g/ha): 100%
- logP (HCOOH) [13]: oily; logP (HCOOH): 2.46; 1H NMR (CDCl3, 400 MHZ, δ in ppm): 1.85-2.00 (m, 3H,
- post-emergence efficacy ECHCG ([14]; 80 g/ha): 100%
- post-emergence efficacy ECHCG ([14]; 320 g/ha): 100%
- post-emergence efficacy VERPE ([15]; 80 g/ha): 90%
- post-emergence efficacy VERPE ([15]; 320 g/ha): 100%
- post-emergence efficacy AMARE ([16]; 80 g/ha): 90%
- post-emergence efficacy AMARE ([16]; 320 g/ha): 100%
- post-emergence efficacy POLCO ([17]; 80 g/ha): 90%
- post-emergence efficacy POLCO ([17]; 320 g/ha): 90%
- post-emergence efficacy ALOMY ([18]; 80 g/ha): 90%
- post-emergence efficacy ALOMY ([18]; 320 g/ha): 90%
- post-emergence efficacy PHBPU ([19]; 80 g/ha): 100%
- post-emergence efficacy PHBPU ([19]; 320 g/ha): 100%
- post-emergence efficacy STEME ([20]; 80 g/ha): 100%
- post-emergence efficacy STEME ([20]; 320 g/ha): 100%
- post-emergence efficacy SETVI ([21]; 80 g/ha): 90%
- post-emergence efficacy SETVI ([21]; 320 g/ha): 90%
- post-emergence efficacy VIOTR ([22]; 80 g/ha): 90%
- post-emergence efficacy VIOTR ([22]; 320 g/ha): 100%
- post-emergence efficacy LOLMU ([23]; 80 g/ha): 80%
- post-emergence efficacy LOLMU ([23]; 320 g/ha): 90%
- post-emergence efficacy ABUTH ([24]; 80 g/ha): 90%
- post-emergence efficacy ABUTH ([24]; 320 g/ha): 90%

Structure (SMILES): CS(=O)(=O)c1cnc(NC2CCCc3ccsc32)nc1N (racemic) [compound 69]
- ECHCG pre-emergence efficacy (herbicidal activity) ([1]; Dosage 320 g/ha): 100%
- VERPE pre-emergence efficacy (herbicidal activity) ([2]; Dosage 80 g/ha): 100%
- VERPE pre-emergence efficacy (herbicidal activity) ([2]; Dosage 320 g/ha): 100%
- AMARE pre-emergence efficacy (herbicidal activity) ([3]; Dosage 80 g/ha): 100%
- AMARE pre-emergence efficacy (herbicidal activity) ([3]; Dosage 320 g/ha): 100%
- POLCO pre-emergence efficacy (herbicidal activity) ([4]; Dosage 320 g/ha): 100%
- ALOMY pre-emergence efficacy (herbicidal activity) ([5]; Dosage 320 g/ha): 80%
- STEME pre-emergence efficacy (herbicidal activity) ([7]; Dosage 80 g/ha): 100%
- STEME pre-emergence efficacy (herbicidal activity) ([7]; Dosage 320 g/ha): 100%
- SETVI pre-emergence efficacy (herbicidal activity) ([8]; Dosage 320 g/ha): 100%
- MATIN pre-emergence efficacy (herbicidal activity) ([9]; Dosage 80 g/ha): 100%
- MATIN pre-emergence efficacy (herbicidal activity) ([9]; Dosage 320 g/ha): 100%
- VIOTR pre-emergence efficacy (herbicidal activity) ([10]; Dosage 80 g/ha): 100%
- VIOTR pre-emergence efficacy (herbicidal activity) ([10]; Dosage 320 g/ha): 100%
- LOLMU pre-emergence efficacy (herbicidal activity) [11]: 100%
- ABUTH pre-emergence efficacy (herbicidal activity) ([12]; Dosage 320 g/ha): 100%
- logP (HCOOH) [13]: solid; m.p.: 129.9° C.; logP (HCOOH): 1.86; 1H NMR (CDCl3, 400 MHZ, δ in ppm): ):
- post-emergence efficacy ECHCG ([14]; 320 g/ha): 80%
- post-emergence efficacy VERPE ([15]; 320 g/ha): 80%
- post-emergence efficacy AMARE ([16]; 80 g/ha): 20%
- post-emergence efficacy AMARE ([16]; 320 g/ha): 90%
- post-emergence efficacy ALOMY ([18]; 320 g/ha): 80%
- post-emergence efficacy STEME ([20]; 320 g/ha): 90%
- post-emergence efficacy VIOTR ([22]; 80 g/ha): 80%
- post-emergence efficacy VIOTR ([22]; 320 g/ha): 100%
- post-emergence efficacy ABUTH ([24]; 320 g/ha): 80%

Structure (SMILES): C/C(=N\OC(C)C)c1cnc(NC2CCCc3sc(C)cc32)nc1N (racemic) [compound 288]
- ECHCG pre-emergence efficacy (herbicidal activity) ([1]; Dosage 320 g/ha): 100%
- VERPE pre-emergence efficacy (herbicidal activity) ([2]; Dosage 80 g/ha): 100%
- VERPE pre-emergence efficacy (herbicidal activity) ([2]; Dosage 320 g/ha): 100%
- AMARE pre-emergence efficacy (herbicidal activity) ([3]; Dosage 320 g/ha): 100%
- POLCO pre-emergence efficacy (herbicidal activity) ([4]; Dosage 80 g/ha): 80%
- POLCO pre-emergence efficacy (herbicidal activity) ([4]; Dosage 320 g/ha): 100%
- ALOMY pre-emergence efficacy (herbicidal activity) ([5]; Dosage 320 g/ha): 80%
- STEME pre-emergence efficacy (herbicidal activity) ([7]; Dosage 80 g/ha): 100%
- STEME pre-emergence efficacy (herbicidal activity) ([7]; Dosage 320 g/ha): 100%
- SETVI pre-emergence efficacy (herbicidal activity) ([8]; Dosage 320 g/ha): 100%
- MATIN pre-emergence efficacy (herbicidal activity) ([9]; Dosage 80 g/ha): 100%
- MATIN pre-emergence efficacy (herbicidal activity) ([9]; Dosage 320 g/ha): 100%
- VIOTR pre-emergence efficacy (herbicidal activity) ([10]; Dosage 80 g/ha): 70%
- VIOTR pre-emergence efficacy (herbicidal activity) ([10]; Dosage 320 g/ha): 100%
- LOLMU pre-emergence efficacy (herbicidal activity) [11]: 100%
- ABUTH pre-emergence efficacy (herbicidal activity) ([12]; Dosage 320 g/ha): 70%
- post-emergence efficacy VERPE ([15]; 320 g/ha): 100%
- post-emergence efficacy AMARE ([16]; 320 g/ha): 90%
- post-emergence efficacy POLCO ([17]; 320 g/ha): 70%
- post-emergence efficacy ALOMY ([18]; 320 g/ha): 70%
- post-emergence efficacy PHBPU ([19]; 320 g/ha): 70%
- post-emergence efficacy STEME ([20]; 320 g/ha): 80%
- post-emergence efficacy MATIN [25]: 90%
- post-emergence efficacy VIOTR ([22]; 80 g/ha): 70%
- post-emergence efficacy VIOTR ([22]; 320 g/ha): 90%
- post-emergence efficacy LOLMU ([23]; 320 g/ha): 60%
- post-emergence efficacy ABUTH ([24]; 320 g/ha): 90%
